≈ marks a conversion by molar mass, not a printed value.
Tests used:
physchem = assay type: physicochemical; details: for solubility at 48 h / solubility at 120 h: organic solvent or mixture
Protocol: Solutions of clofoctol were prepared in different solvents: 100% PG, 85/15 PG/Gly, 70/30 PG/Gly, 50/50 PG/Gly. Solutions were sonicated then incubated at 65°C for 30 min, until complete dissolution of clofoctol. Then, the samples were incubated at RT under stirring for different times. For collection before analysis after determined incubation times, the solutions were centrifuged, then the supernatants were collected and diluted before LC-MS/MS analysis for clofoctol quantitation in samples.

[1] = aerosol drug mass density (TAG aerosol trapped on filter, LC-MS); assay type: physicochemical; details: airflow 34 L per minute; for Collected mass of clofoctol in the trap: 1.416 L aerosol trapped
Protocol: The term "aerosol" refers to a suspension of fine solid particles or liquid droplets in a gas. The expression "(aerosol) drug mass density" refers to the mass of clofoctol per unit volume of aerosol. It is calculated by measuring the quantity of clofoctol in a determined volume of aerosol beforehand trapped.
(§1) The purity of a clofoctol-containing aerosol, and quantitation of clofoctol in this aerosol was determined using a method that involves forming the aerosol in a device through which an air flow is maintained, generally at a rate between 1 and 180 L/min. The gas flow carries the aerosol into one or more traps. After extraction from the trap, the trapped components from the aerosol are subjected to an analytical technique, such as liquid chromatography, that permits a determination of composition and purity. The liquid chromatography discussed above contains a detection system (i.e., detector). Such detection systems are well known in the art and include, for example, UV detectors and mass spectrometry detectors. Liquid chromatography-mass spectrometry is the preferred analytical technique.
Solutions containing 20 mg/g of clofoctol in various solvents were prepared. Aerosols were produced using a TAG (Vaporesso swag 2 with a coil resistance of 0.3 ohms) at different powers and an airflow of 34 L per minute. 1.416 L of emitted aerosol was trapped on a plastic filter. Clofoctol was then extracted from the filter and dosed by LC-MS to determine the drug mass density.

[2] = characterization of aerosol particles by laser light scattering (Malvern Mastersizer X); assay type: physicochemical; details: air flow 20L/min
Protocol: The "median diameter" (D(v;0.5)) of an aerosol refers to the diameter for which half the particulate mass of the aerosol consists of particles with a diameter larger than the median diameter and half by particles with a diameter smaller than the median diameter. The median diameter is measured by laser light scattering using for example a Malvern Mastersizer X or any equivalent apparatus working on the same principle of laser light scattering.
The "span" of a volume-based size distribution is defined by Span = (D(v;0.9) - D(v;0.1)) / D(v;0.5) and gives an indication of how far the 10 percent and 90 percent points are apart, normalized by the midpoint.
The "volume concentration" is the volume of particles reported to the total volume of the aerosol expressed as a percentage. The volume concentration is measured by laser light scattering using for example a Malvern Mastersizer X or any equivalent apparatus working on the same principle of laser light scattering.
Solutions containing 10 mg/g or 20 mg/g of clofoctol in various solvents were prepared. Aerosols were produced using a TAG (Vaporesso swag 2 with a coil resistance of 0.3 ohms) at different powers. The flow of aerosol was generated using an air flow of 20L/min. A certain volume of emitted aerosol was passed through the laser beam of a granulometer, Mastersizer X from Malvern.

[3] = clofoctol purity in the aerosol after thermal aerosol generation (LC-UV-MS); assay type: physicochemical; details: for Mean purity: mean of puffs 1 and 2
Protocol: as §1
Solutions containing 20 mg/g of clofoctol in various solvents were prepared. Aerosols were produced using a TAG (Vaporesso swag 2 with a coil resistance of 0.3 ohms) at different powers. The flow of aerosol was generated using an air flow of 20 L/min. One or two successive puffs of 2.5s each was (were) done for each condition. For each puff, a certain volume of emitted aerosol was trapped on a plastic filter. Clofoctol was then extracted from the filter and analysed by LC-UV-MS.

in vivo = assay: in vivo; set-up: species or system Mice; details: mouse, inhaled or intranasal
Protocol: Mice (Charles River, Female CD-1, 20-23 g) were permitted water and food ad libitum during the experiment. Clofoctol was administrated by Nose-Only inhalation in a homemade inhalation chamber in part inspired by a previous described apparatus (ref. 6). Animals were acclimated to restraint during a week before the experiment started. Animals were exposed to an aerosol generated (using a TAG connected to the chamber: Vaporesso swag 2 with a coil resistance of 0.3 ohms) from a solution of 20 mg/g of clofoctol ([…]/Glycerin, 85/15) for a period of 15 min with a puff of 4.5 s every minute (with a power of 30W).
Blood and lungs (left lung) were sampled 5, 10, 15, 30, 60 and 120 minutes after the end of a single inhalation period (2 mice/sampling time). The blood was sampled in tubes with Lithium Heparin on ice and then the plasma was separated from the red cells by centrifugation and frozen (-80°C).
A known mass (approximately 15mg, weighed beforehand) of each lung was placed into a 'safe lock' microtube (2 mL). […]
The unknown lung concentrations of clofoctol were calculated from a calibration line produced in the same matrix (naive lung from 'vehicle' animals) and reprocessed in the same way as the samples (homogenization in ethanol).

[4] = 20 mg/g clofoctol in 70/30 PG/Gly, TAG power 30 W
[5] = 20 mg/g clofoctol in 85/15 PG/Gly, TAG power 30 W
[6] = 20 mg/g clofoctol in 85/15 PG/Gly, TAG power 50 W
[7] = 20 mg/g clofoctol in 85/15 PG/Gly, TAG power 80 W
[8] = 20 mg/g clofoctol in 100% PG, TAG power 30 W
[9] = aerosol from 10 mg/g CFT in 85/15 PG/Gly, power 30 W
[10] = aerosol from 10 mg/g CFT in 85/15 PG/Gly, power 45 W
[11] = aerosol from 10 mg/g CFT in 85/15 PG/Gly, power 60 W
[12] = aerosol from 20 mg/g CFT in 70/30 PG/Gly, power 30 W
[13] = aerosol from 20 mg/g CFT in 85/15 PG/Gly, power 30 W
[14] = aerosol from 20 mg/g CFT in 100% PG, power 30 W

CC(C)(C)CC(C)(C)c1ccc(O)c(Cc2ccc(Cl)cc2Cl)c1 [clofoctol, 2-[(2,4-dichlorophenyl)methyl]-4-(2,4,4-trimethylpentan-2-yl)phenol]
solubility at 48 h (physchem; 50/50 pg/gly): 7.9 mM (≈ 2.89 mg/mL) | solubility at 120 h (physchem; 50/50 pg/gly): 6.7 mM (≈ 2.45 mg/mL) | solubility at 48 h (physchem; 70/30 pg/gly): 29.8 mM (≈ 10.9 mg/mL) | solubility at 120 h (physchem; 70/30 pg/gly): 28.1 mM (≈ 10.3 mg/mL) | solubility at 48 h (physchem; 85/15 pg/gly): 504 mM (≈ 184 mg/mL) | solubility at 120 h (physchem; 85/15 pg/gly): 147 mM (≈ 53.6 mg/mL) | solubility at 48 h (physchem; 100% pg): 489 mM (≈ 179 mg/mL) | solubility at 120 h (physchem; 100% pg): 441 mM (≈ 161 mg/mL) | maximum concentration achieved (physchem; 7200 min): about 15 % by weight | Drug mass density [1, 4]: 0.091 mg/L | Collected mass of clofoctol in the trap [1, 4]: 128.3 µg | Drug mass density [1, 5]: 0.096 mg/L | Collected mass of clofoctol in the trap [1, 5]: 135.8 µg | Drug mass density [1, 6]: 0.099 mg/L | Collected mass of clofoctol in the trap [1, 6]: 141.1 µg | Drug mass density [1, 7]: 0.071 mg/L | Collected mass of clofoctol in the trap [1, 7]: 100.5 µg | Drug mass density [1, 8]: 0.159 mg/L | Collected mass of clofoctol in the trap [1, 8]: 225.6 µg | Mean diameter [2, 9]: 2.45 µm | Median diameter [2, 9]: 2.42 µm | Sauter diameter [2, 9]: 2.34 µm | Span [2, 9]: 0.519 | Volume conc. [2, 9]: 0.0052% | Mean diameter [2, 10]: 2.40 µm | Median diameter [2, 10]: 2.38 µm | Sauter diameter [2, 10]: 2.30 µm | Span [2, 10]: 0.523 | Volume conc. [2, 10]: 0.0027% | Mean diameter [2, 11]: 2.63 µm | Median diameter [2, 11]: 2.59 µm | Sauter diameter [2, 11]: 2.46 µm | Span [2, 11]: 0.635 | Volume conc. [2, 11]: 0.0018% | Mean diameter [2, 12]: 2.89 µm | Median diameter [2, 12]: 2.87 µm | Sauter diameter [2, 12]: 2.76 µm | Span [2, 12]: 0.551 | Volume conc. [2, 12]: 0.0020% | Mean diameter [2, 13]: 2.41 µm | Median diameter [2, 13]: 2.38 µm | Sauter diameter [2, 13]: 2.30 µm | Span [2, 13]: 0.543 | Volume conc. [2, 13]: 0.0016% | Mean diameter [2, 14]: 2.78 µm | Median diameter [2, 14]: 2.75 µm | Sauter diameter [2, 14]: 2.66 µm | Span [2, 14]: 0.521 | Volume conc. [2, 14]: 0.0038% | Mean purity ([3]; aerosol from 20 mg/g clofoctol in 70/30 PG/Gly, power 30 W): 100.0% | Purity CFT ([3]; aerosol from 20 mg/g clofoctol in 70/30 PG/Gly, power 30 W, puff number 1): 100.0% | Purity CFT ([3]; aerosol from 20 mg/g clofoctol in 70/30 PG/Gly, power 30 W, puff number 2): 100.0% | Mean purity ([3]; aerosol from 20 mg/g clofoctol in 70/30 PG/Gly, power 80 W): 91.0% | Purity CFT ([3]; aerosol from 20 mg/g clofoctol in 70/30 PG/Gly, power 80 W, puff number 1): 91.4% | Purity CFT ([3]; aerosol from 20 mg/g clofoctol in 70/30 PG/Gly, power 80 W, puff number 2): 90.6% | Mean purity ([3]; aerosol from 20 mg/g clofoctol in 100% PG, power 30 W): 100.0% | Purity CFT ([3]; aerosol from 20 mg/g clofoctol in 100% PG, power 30 W, puff number 1): 100.0% | Purity CFT ([3]; aerosol from 20 mg/g clofoctol in 100% PG, power 30 W, puff number 2): 100.0% | Mean purity ([3]; aerosol from 20 mg/g clofoctol in 100% PG, power 80 W): 87.4% | Purity CFT ([3]; aerosol from 20 mg/g clofoctol in 100% PG, power 80 W, puff number 1): 92.0% | Purity CFT ([3]; aerosol from 20 mg/g clofoctol in 100% PG, power 80 W, puff number 2): 82.7% | Tmax (in vivo): ≤ 5 min

Source: patent publication EP4238553A1, “COMPOSITIONS AND METHODS FOR DELIVERING CLOFOCTOL” (priority 2022, dated 2023)
